The results in this text go back to US20240226165A1, “Methods of Producing Improved Immune Cell Populations” (Prescient Therapeutics Ltd, priority 2021, published 2024).

Data set [1] has as its system murine CAR-T-cells. Briefly: Flow cytometry phenotyping of murine CAR-T-cells after manufacturing. The class given is cell-based, mouse. The source says: (§1) Mouse splenocytes were activated using CD3/CD28 antibodies and cultured in the presence of recombinant IL-2 and IL-7 for 24 hrs prior to transduction with CAR-T vectors.
(§2) Cells were stained using fluorochrome labelled antibodies against CD4, CD8, CD44, CD62L to phenotype the murine CAR-T-cells following manufacturing. Human CAR-T-cells were phenotyped using fluorochrome-conjugated antibodies against CD4, CD8, CD45RA, CD45RO, CD44, CD62L, CCR7, CD27, PD-1 and CD69. A fixable live/dead dye was used to distinguish between live or dead cells.
Splenocytes from C57BL/6 donor mice were activated with 1 μg mL^−1 anti-CD3, 1 μg mL-1 anti-CD28 in the presence of IL-2 and 200 pg mL-1 IL-7 for 1 day then ficoll gradient treatment. Cells were transduced in plates coated with 1 μg mL of retronectin using supernatant produced from a GP+86 LXSN-anti-Her2 CAR packaging cell line. The transduced cells were then expanded in complete RPMI with the same concentration of IL-2 and IL-7 with or without 5 μM of PTX-200. Fresh IL-2 and IL-7 in complete media were added to all CAR-T-cells 2 days post-transduction.

The subject of data set [2] is human CAR-T-cells. Briefly: Flow cytometry phenotyping of human CAR-T-cells from PBMC donors. It counts as cell-based. Here is the method: Human PBMCs were extracted from buffy packs (Australian Red Cross Blood Service). They were activated using anti-CD3 antibody (OKT3) for 2 days before transduction for 48 hours, all in the presence of IL-2.
Buffy coats from three donors were processed to isolate PBMCs, where 50 million PBMCs were cultured for 2 days in the presence of media containing anti-CD3 antibodies (OKT3, 1.5 μg per mL) and recombinant IL-2 (600 U/mL). […] Samples were collected either 24 or 72 hours later.

The test system of data set [3] is MC-38-hHer2. Briefly: MC-38-hHer2 colon cancer model in hHer2 transgenic mice. It counts as in vivo, mouse.
Experimental: C57BL/6J wildtype (WT) and human Her2 (hHer2) transgenic mouse lines were all in bred and maintained at the Peter MacCallum Cancer Centre (Victoria, Australia). Mice between the age of 6 and 16 weeks were gender-matched and randomised into different treatment groups.
Her2 transgenic recipients were either injected subcutaneously with 2.5×10^5 of MC38-hHer2 or 2.5×10^5 of E0771-hHer2 into the mammary fat pad with. Once the tumours become palpable and they were measured using a manual caliper and tumour area calculated in millimetres squared (mm^2, length×width). On day 6-7 post-tumour inoculation, tumour-bearing Her2+ mice were ranodmised to have an average tumour size of 20 mm^2, 20×10^6 of CAR-transduced T-cells were adoptively transferred into these recipients. 50 000 U of IL-2 was administered via intraperitoneal injection 5 times over the next 2 days. Tumour sizes were measured and monitored every 2-3 days until their tumour size exceed 120 mm^2 or until the tumour-bearing mice reached a designated experimental time point.
The subject of data set [4] is human CAR-T-cells. Briefly: Mass spectrometry of cellular proteome. It counts as cell-based. The settings on record: treatment of PBMCs.
Source text: At each time point, cells were collected and washed three times with cold DPBS before cell lysis for global proteomic analysis.
Cells were homogenised/solubilised containing protease and phosphatase inhibitor (HALT) by tip-probe sonication, quantified, normalized and reduced (dithiothreitol, DTT), alkylated (iodoacetamide), before Sera-Mag Speed Bead-based protein digestion with LysC (enzyme:substrate 1:100, Wako Pure Chemical Industries) trypsin (enzyme:substrate 1:50). […] Peptides desalted (SDB-RPS Stage-Tips), and analysed for global cellular proteome.
Spectra acquired in data dependent acquisition on an Orbitrap Q-Exactive HF-X mass spectrometer coupled to an Easy-nLC 1200 (Thermo Fisher Scientific) ultra-high pressure liquid chromatography (UHPLC) pump. […] The most intense MS1 ions were selected for MS2 analysis, fragmented by higher-energy collisional dissociation with normalized collision energy of 33. Precursors were filtered according to charge state≥2, AGC set at 1e5 for MS/MS, with monoisotopic peak used.
Mass spectra were pre-processed and processed using MaxQuant (1.6.14). […]
For further data analysis, the normalized intensities were converted into log 2 ratios of the intensities over the median intensity measured for each protein across each sample group, with statistical analyses performed using Student's T-test or ANOVA (p-value<0.05 was considered significant). […]
Data set [5] in a line: Immune subsets in spleen and tumour, MC-38-hHer2 model. The settings on record: TCN-P as adjuvant in the presence of CAR-T-cells. The class given is in vivo, mouse. The source says: Blood of mice was collected directly into EDTA-containing tube via submandibular bleeding at day 8-9 post-treatment. At the experimental endpoint, various organs including tumour, draining lymph node (dLN) and spleen were collected immediately after euthanasia. Single cell suspension from the dLN and spleen were achieved by processing these organs through a 70 μm filter. For splenocytes, red blood cells were lysed with ACK lysis buffer. Solid tumours were manually sliced and digested with DMEM containing 1 mg mL^−1 type IV collagenase and 0.02 mg mL^−1 DNAse for 30 mins at 37° C. in a rocking incubation at 120 r.p.m. Digestion was neutralised with DMEM and processed through a 70 μm filter and resuspended in either FACS buffer or complete RPMI media. […]
Cells were blocked for 15 mins at room temperature with Fc receptor block (clone 2.4G2 of the hybridoma supernatant diluted 1:50 with FACS buffer). […] The number of target T-cell population was calculated by using: the number of input beads in the sample/bead events×events of targeted population.

The subject of data set [6] is murine T-cells. Particulars: extremely low concentrations.
Source text: as §1, §2

Each structure is given as a SMILES string. Entries after “also recorded” stand apart in the source; their conditions may differ.

Consider `CN1N=C(N)c2cn([C@@H]3O[C@H](COP(=O)(O)O)[C@@H](O)[C@H]3O)c3ncnc1c23` [TCN-P, triciribine 5′-monophosphate], for which, in data set [1] (TCN-P conditioning during CAR-T manufacturing, prior to administration), the “ratio of CD4:CD8 T-cells” value is listed as “unchanged”. In addition, the “central memory CD8+ CAR-T-cells (CD44+ CD62L+)” value in data set [1] (TCN-P preconditioning during CAR-T manufacturing) is “significant enrichment”. Also, the “effector T (TE) cells in CD8+ CAR-T-cells” value in data set [2] (24 hrs, n=3 donors, control/vehicle 8%) came out at 5%. Besides, the “Central memory T (TCM) cells (CD45RO+ CD62L+) in CD8+ CAR-T-cells, mean” value in data set [2] (24 hrs, n=3 donors, control/vehicle 11%) turned out to be 17%. For the same compound, the “Central memory T (TCM) cells (CD45RO+ CD62L+) in CD8+ CAR-T-cells” value in data set [2] (3 days, after 24 hour treatment, n=3, control/vehicle 9%) was found to be 16%. The “effector T (TE) cells in CD8+ CAR-T-cells” value in data set [2] (3 days, after 24 hour treatment, n=3, control/vehicle 35%) is on record as 23%. Moreover, the “CCR7+ TCM, mean” value in data set [2] (CD8+ CAR-T, pre-treatment, from 9%) was 16%. Further, the “CCR7+ TE” value in data set [2] (CD8+ CAR-T, pre-treatment, from 35%) is on record as 23%. Also, the “TCM or TE phenotype of CD4+ CAR-T-cells” value in data set [2] (pre-treatment, 24 hrs and 3 days) was “did not have any effect”. Further, in data set [2] (pre-treatment, low concentrations), the “TREG proportions (CD4+CD25+FoxP3+) in CD4+ transduced CAR-T-cells” value is on record as “reduced”. Also, in data set [3] (25 mg/kg TCN-P adjuvant every 3 days following Her2-targeting CAR-T administration), the “tumour control / tumour killing, tumour sizes until day 14” value is “significantly improved”. In data set [3] (TCN-P 25 mg/Kg, 20×10^6 CAR-T-cells, control group 15 days), this compound displayed a median survival duration of 20 days. For the same compound, in data set [3] (TCN-P alone, 5, 25 or 50 mg/Kg i.p. every 3-4 days), the “anti-tumour effect (tumour growth)” value is reported as “dosage dependent anti-tumour effect; also recorded: strong anti-tumour effect”. In data set [4], the “enrichment of proteins associated with interferon signalling and anti-viral activity” value was “increased enrichment”; the “proteins associated with metabolism and RNA processing” value is on record as “enriched”. Besides, the “reduction of intratumoral Tregs” value in data set [5] was 50%. In data set [6], the “tolerability by transduced T-cells” value is on record as “well-tolerated”.
